Data set [1] concerns six human cancer cell lines (prostate, glioma, pancreas, colon, lung, and breast cancers). The data set can be described thus: MTT test of overall cell growth, mean of six human cancer cell lines. Particulars: 72 hours of incubation, mean of the six human cancer cell lines, range of molar concentrations giving 50% inhibition of overall tumor cell growth. It counts as cell-based. Here is the method: MTT tests were performed in order to rapidly, i.e. within 5 days, measure the effect of compounds of this invention on the overall cell growth. The test measured the number of metabolically active living cells that were able to transform the yellow product 3-(4,5-dimethylthiazol-2-yl)-2,5-diphenyl tetrazolium bromide (herein referred as MTT) into the blue product formazan dye by mitochondrial reduction. The amount of formazan obtained at the end of the experiment, measured by means of a spectrophotometer, is directly proportional to the number of living cells.
Six human cancer cell lines described in table 7 were used in the following MTT tests. These cancer cell lines cover six histological cancer types, being prostate, glioma, pancreas, colon, lung, and breast cancers.
To perform the assay, cells were allowed to grow in 96-well micro-wells with a flat bottom with an amount of 100 μl of cell suspension per well with 1,000 to 4,000 cells/well depending on the cell type used. Each cell line was seeded in a well known MEM 10% serum culture medium.
The detailed experimental procedure was the following: after a 24-hour period of incubation at 37° C., the culture medium was replaced by 100 μl of fresh medium in which the tested compound was previously dissolved, at the following molar concentrations: 10^−9 M, 5.10^−9 M, […], 10^−7 M, 5.10^−7 M, 10^−6 M, 5.10^−6 M, and […]. Each experiment was repeated 6 times.
After 72 hours of incubation at 37° C. with (experimental conditions) or without (control condition) the compound to be tested, the medium was replaced by 100 μl MTT dissolved in RPMI (1640 without phenol red) at a concentration of 1 mg/ml. The micro-wells were subsequently incubated during 3 hours at 37° C. and centrifuged at 400 g during 10 minutes. MTT was removed and formazan crystals formed were dissolved in 100 μl DMSO. The micro-wells were shaken for 5 minutes and read on a spectrophotometer at wavelengths of 570 nm (maximum formazan absorbance) and 630 nm (background noise).
For each experimental condition, the mean optical density was calculated, allowing the determination of the percentage of remaining living cells in comparison to the control.

Data set [2] in a line: in vivo. Particulars: mouse, maximum tolerated dose, single intravenous dose, healthy mice, survival and weights recorded up to 14 days. Here is the method: The maximum tolerated dose (herein after MTD) is defined as the maximum amount of a given drug which can be administered acutely (i.e. in one intraperitoneal, intravenous, subcutaneous or oral single dose) to healthy animals, i.e. animals not grafted with tumors. In this assay, compounds were administered intravenously. The survival times and weights of the animals were recorded up to 14 days post injection. Five different doses of each compound were used for the determination of the MTD index. Each experimental group comprised 3 mice for the determination of the MTD (expressed in mg/kg).

Data set [3] deals with PC3 (apoptosis-resistant cancer cells). The data set can be described thus: Cellular imaging (computer-assisted phase-contrast microscopy): cell migration and global growth ratio. It counts as cell-based, human. Particulars: PC3, 100 nM; for Ratio GGRtreated cells/GGRcontrol cells: 72 h, global growth ratio; for effect on cell migration: filmed for 72 h. The procedure: (§1) A cellular imaging approach (Debeir et al., Cytometry 60:29-40, 2004; Debeir et al., IEEE Trans Med Imaging 24:697-711, 2005) was used to investigate whether the isocarbostyril alkaloid derivatives of the present invention were able to impair cell proliferation and cell migration in apoptosis-sensitive (U-373MG—see Table 7) as well as apoptosis-resistant (PC3—see Table 7) cancer cells. Cellular imaging relied on the use of computer-assisted phase-contrast microscopy making possible to film the behavior of living cells in culture dishes for several days.
(§2) Cells were seeded in 25-cm^2 at a low density, treated or not with the compounds of the present invention (at a concentration of 100 nM) and filmed thereafter for a period of 72 h. The analysis of the films was performed by two operators, working independently. The effect on cell migration was characterized as +++ (high effect: cell migration of most cells is drastically altered for most of the duration of the film), ++ (medium effect: compound altering cell migration of an important proportion of the cells although less drastically), + (low effect: compound affecting cell migration of a small part of the cell population, or only for a limited part of the 72 h incubation), − (no effect: as compared to the control conditions, no difference is observed). The effect on the overall growth was measured by counting the number of cells on the first (Oh) and the last image (72 h) of each film. The global growth ratio (GGR) was then deduced by dividing the number of cells on the last image by the number of cells on the first image. The ratio GGRtreated cells/GGRcontrol cells, was further calculated thereby obtaining a value that describes the effect of compounds of the present invention on the overall cell growth.

Data set [4] has as its system U-373MG (apoptosis-sensitive cancer cells). The data set is described as above. It counts as cell-based, human. Particulars: 100 nM; for Ratio GGRtreated cells/GGRcontrol cells: 72 h, global growth ratio; for effect on cell migration: filmed for 72 h. The procedure:
as §1, §2

Each structure is given as a SMILES string.

In general, IC50 refers to the concentration needed to halve the response being measured. Low values mean higher potency, high ones lower potency. The MTD is the highest dose tested that stayed within the study's limit of toxicity. A higher MTD goes with better tolerability. Regarding `CC(=O)Oc1c2c(cc3c1C(=O)N[C@@H]1C3=C[C@H](OC(C)=O)[C@@H](O)[C@H]1O)OCO2` [Compound 10, (2S,3S,4S,4aR)-3,4-dihydroxy-(1,3)dioxolo(4,5-j)-6-oxo-2,3,4,4a,5,6-hexahydrophenanthridin--2,7-diyl diacetate], the IC50 in data set [1] was 0.1 to 0.5 µM. Besides, the maximal tolerated dose (MTD) at 14 days in data set [2] was > 80 mg/kg. Further, in data set [3], the “Ratio GGRtreated cells/GGRcontrol cells” value came out at 1.38 and the “effect on cell migration” value is on record as “+”. Further, in data set [4], the “Ratio GGRtreated cells/GGRcontrol cells” value is listed as 1.06 and the “effect on cell migration” value is on record as “−”.

The compound `CC(C)C(=O)O[C@H]1C=C2c3cc4c(c(O)c3C(=O)N[C@H]2[C@H](O)[C@@H]1O)OCO4` [Compound 20, (2S,3S,4S,4aR)-3,4,7-trihydroxy-(1,3)dioxolo(4,5-j)-6-oxo-2,3,4,4a,5,6-hexahydrophenanthridin-2-yl 2-methylpropanoate] yielded an IC50 in data set [1] of 0.01 to 0.05 µM. The maximal tolerated dose (MTD) at 14 days in data set [2] worked out at 40 mg/kg.

`O=C(O)COc1c2c(cc3c1C(=O)N[C@@H]1C3=C[C@H](O)[C@@H](O)[C@H]1O)OCO2` [Compound 6, {[(2S,3R,4S,4aR)-2,3,4-trihydroxy-(1,3)dioxolo(4,5-j)-6-oxo-3,4,4a,5-tetrahydrophenanthridin-6(2H)-7-yl]oxy}acetic acid] had a half-inhibitory concentration (IC50) in data set [1] of 5 to 10 µM.

In data set [1], `O=C1N[C@@H]2C(=C[C@H](O)[C@@H](O)[C@H]2O)c2cc3c(c(OCc4ccc5ccccc5c4)c21)OCO3` [Compound 8] had an IC50 of 1 to 5 µM. Also, the MTD at 14 days in data set [2] is > 80 mg/kg.

`O=C1N[C@@H]2C(=C[C@H](O)[C@@H](O)[C@H]2OS(=O)(=O)[O-])c2cc3c(c(O)c21)OCO3.[Na+]` [Compound 1, (2S,3R,4S,4aR)-2,3,7-trihydroxy-(1,3)dioxolo(4,5-j)-6-oxo-2,3,4,4a,5,6-hexahydrophenanthridin-4-yl sodium sulfate] returned a half-maximal inhibitory concentration (IC50) in data set [1] of 1 to 5 µM. Also, in data set [2], the MTD at 14 days is > 80 mg/kg.

In data set [1], `CC(=O)O[C@@H]1[C@H](OC(C)=O)[C@@H](OC(C)=O)C=C2c3cc4c(c(OCc5ccc6ccccc6c5)c3C(=O)N[C@H]21)OCO4` [Compound 7, (2S,3R,4S,4aR)-7-[(2-naphthylmethoxy]-(1,3)dioxolo(4,5-j)-6-oxo-2,3,4,4a,5,6-hexahydrophenanthridin-2,3,4-triyl triacetate] showed an IC50 of 1 to 5 µM.

As for `O=C1c2c(cc3c(c2OCc2ccccc2)OCO3)C2=C[C@H](O)[C@@H](O)[C@@H](O)[C@@H]2N1Cc1ccccc1` [Compound 9, (2S,3R,4S,4aR)-2,3,4-trihydroxy-7-[benzyloxy]-5-benzyl-(1,3)dioxolo(4,5-j)-3,4,4a,5-tetrahydrophenanthridin-6(2H)-one], the IC50 in data set [1] was > 10 µM. The maximal tolerated dose (MTD) at 14 days in data set [2] is 40 mg/kg.

In data set [1], `CCC(=O)O[C@H]1C=C2c3cc4c(c(O)c3C(=O)N[C@H]2[C@H](O)[C@@H]1O)OCO4` [Compound 19, (2S,3S,4S,4aR)-3,4,7-trihydroxy-(1,3)dioxolo(4,5-j)-6-oxo-2,3,4,4a,5,6-hexahydrophenanthridin-2-yl propionate] yielded an IC50 of 0.01 to 0.05 µM. Further, the MTD at 14 days in data set [2] stood at 40 mg/kg.

For the compound `CCOC(=O)COc1c2c(cc3c1C(=O)N[C@@H]1C3=C[C@H](OC(C)=O)C(OC(C)=O)[C@H]1OC(C)=O)OCO2` (stereo partly drawn) [Compound 2, ethyl ({(2S,3R,4S,4aR)-2,3,4-tris[(methylcarbonyl)oxy]-(1,3)dioxolo(4,5-j)-6-oxo-2,3,4,4a,5,6-hexahydrophenanthridin--7-yl}oxy)acetate], the IC50 in data set [1] is > 10 µM.

As to `CC(=O)O[C@H]1C=C2c3cc4c(c(O)c3C(=O)N[C@H]2[C@H](O)[C@@H]1O)OCO4` [Compound 11, (2S,3S,4S,4aR)-3,4,7-trihydroxy-(1,3)dioxolo(4,5-j)-6-oxo-2,3,4,4a,5,6-hexahydrophenanthridin--2-yl acetate], the IC50 in data set [1] lay within 0.1 to 0.5 µM. Moreover, in data set [2], the MTD at 14 days was > 80 mg/kg. Moreover, the “Ratio GGRtreated cells/GGRcontrol cells” value in data set [3] stood at 0.40; in data set [4] it was 0.42. Further, the “effect on cell migration” value in data set [3] is recorded as “+++”; in data set [4], “++”.

As for `CCOC(=O)COc1c2c(cc3c1C(=O)N(CC(=O)OCC)[C@@H]1C3=C[C@H](OC(C)=O)C(OC(C)=O)[C@H]1OC(C)=O)OCO2` (stereo partly drawn) [Compound 3, ethyl [(2S,3R,4S,4aR)-2,3,4-tris[(methylcarbonyl)oxy]-(1,3)dioxolo(4,5-j)-7-(2-ethoxy-2-oxoethoxy)-6-oxo-2,3,4,4a,5,6-hexahydrophenanthridin--5(3H)-yl]acetate], the IC50 in data set [1] is > 10 µM.

In data set [1], `O=C(O[C@H]1C=C2c3cc4c(c(O)c3C(=O)N[C@H]2[C@H](O)[C@@H]1O)OCO4)c1ccccc1` [Compound 13, (2S,3S,4S,4aR)-3,4,7-trihydroxy-(1,3)dioxolo(4,5-j)-6-oxo-2,3,4,4a,5,6-hexahydrophenanthridin--2-yl benzoate] registered an IC50 of 0.01 to 0.05 µM. Also, the MTD at 14 days in data set [2] worked out at 10 mg/kg. Also, in data set [3], the “Ratio GGRtreated cells/GGRcontrol cells” value came to 0.31 and the “effect on cell migration” value is reported as “+++”. In addition, in data set [4], the “Ratio GGRtreated cells/GGRcontrol cells” value was 0.45 and the “effect on cell migration” value was “++”.

`COC(=O)COc1c2c(cc3c1C(=O)N[C@@H]1C3=C[C@H](O)[C@@H](O)[C@H]1O)OCO2` [Compound 5, methyl {[(2S,3R,4S,4aR)-2,3,4-trihydroxy-(1,3)dioxolo(4,5-j)-6-oxo-3,4,4a,5-tetrahydrophenanthridin-6(2H)-7-yl]oxy}acetate]: the IC50 in data set [1] lay within 5 to 10 µM.

`O=C1N[C@@H]2C(=C[C@H](O)[C@@H](O)[C@H]2O)c2cc3c(c(O)c21)OCO3` [narciclasine, reference compound] showed an IC50 in data set [1] of 0.01 to 0.05 µM.

As for `CC(=O)O[C@@H]1[C@H](OC(C)=O)[C@@H](OC(C)=O)C=C2c3cc4c(c(O)c3C(=S)N[C@H]21)OCO4` [Compound 4, (2S,3R,4S,4aR)-7-hydroxy-(1,3)dioxolo(4,5-j)-6-thioxo-2,3,4,4a,5,6-hexahydrophenanthridin--2,3,4-triyl triacetate], the IC50 in data set [1] lay within 1 to 5 µM. For the same compound, in data set [2], the MTD at 14 days is 40 mg/kg.

The record behind these values is US20100076005A1, “ISOCARBOSTYRIL ALKALOID DERIVATIVES HAVING ANTI-PROLIFERATIVE AND ANTI-MIGRATORY ACTIVITIES” (Unibioscreen SA, priority 2006, published 2010).
